From patent US12564580B2, “Mitochondria-targeted isoketal/isolevuglandin scavengers and uses thereof” (Vanderbilt University, priority 2020, dated 2026)

Assays:
Water solubility = type: physicochemical
Description: (§1) Mito2HOBA is a water-soluble compound which can be supplied in the media and provided to animals in the drinking water.

[1] = Tolerability in animal experiments; type: in vivo; settings: doses from 0.1-0.3 g/L in drinking water
Description: as §1

Question: What does the source list for `NCc1ccc(OCCCC[P+](c2ccccc2)(c2ccccc2)c2ccccc2)cc1O` [mito2HOBA]?
Answer: water solubility (Water solubility): water-soluble; tolerability [1]: well tolerated
